The values that follow come from patent publication US20230257367A1, “NOVEL THYROID HORMONE BETA RECEPTOR AGONIST” (Chengdu Kanghong Pharmaceutical Co., Ltd., priority 2020, published 2023).

Like-named read-outs stand apart in the source and are kept apart here.

The target in data set [1] is T1, TRα-LBD/RXRα (Homo sapiens, UniProt P10827).
T1 construct: TRα-LBD (Invitrogen, PV4762), or TRβ-LBD (Invitrogen, PV4764) with a GST tag were used; purchased Invitrogen (TRα-LBD); Pharmaron (RXRα) PV4762
T1 sequence (P19793 whole entry partner, other chains not shown, the tested form may be a part): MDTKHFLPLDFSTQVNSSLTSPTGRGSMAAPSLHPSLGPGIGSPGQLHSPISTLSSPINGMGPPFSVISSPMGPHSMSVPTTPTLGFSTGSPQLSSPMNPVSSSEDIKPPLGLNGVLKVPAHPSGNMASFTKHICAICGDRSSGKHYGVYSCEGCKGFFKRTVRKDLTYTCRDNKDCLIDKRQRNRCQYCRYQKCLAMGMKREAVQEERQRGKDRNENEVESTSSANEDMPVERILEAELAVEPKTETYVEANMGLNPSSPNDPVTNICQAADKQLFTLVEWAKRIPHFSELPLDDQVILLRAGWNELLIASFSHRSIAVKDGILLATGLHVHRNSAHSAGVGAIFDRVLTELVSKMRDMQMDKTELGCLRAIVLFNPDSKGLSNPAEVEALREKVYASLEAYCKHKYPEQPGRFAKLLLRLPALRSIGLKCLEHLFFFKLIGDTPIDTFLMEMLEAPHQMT
Kind of data set: In vitro binding experiment (TR-FRET SRC2-2 co-activator peptide recruitment), TRα. The class given is biochemical. Particulars: 4 h incubation at room temperature. A general note: TR-FRET usually uses a lanthanide donor and a delayed reading to cut background.

Data set [2] concerns the target T2, TRβ-LBD/RXRα (Homo sapiens, UniProt P10828).
T2 construct: TRβ-LBD (Invitrogen, PV4764) with a GST tag were used; purchased Invitrogen (TRβ-LBD); Pharmaron (RXRα) PV4764
Kind of data set: In vitro binding experiment (TR-FRET SRC2-2 co-activator peptide recruitment), TRβ. Format: biochemical. Particulars: 4 h incubation at room temperature.

For data set [3], the target named is T3, TRα (Homo sapiens, UniProt P10827).
T3 construct: host or cells: HEK293T
T3 sequence (P10827 1-410 isoform P10827-2): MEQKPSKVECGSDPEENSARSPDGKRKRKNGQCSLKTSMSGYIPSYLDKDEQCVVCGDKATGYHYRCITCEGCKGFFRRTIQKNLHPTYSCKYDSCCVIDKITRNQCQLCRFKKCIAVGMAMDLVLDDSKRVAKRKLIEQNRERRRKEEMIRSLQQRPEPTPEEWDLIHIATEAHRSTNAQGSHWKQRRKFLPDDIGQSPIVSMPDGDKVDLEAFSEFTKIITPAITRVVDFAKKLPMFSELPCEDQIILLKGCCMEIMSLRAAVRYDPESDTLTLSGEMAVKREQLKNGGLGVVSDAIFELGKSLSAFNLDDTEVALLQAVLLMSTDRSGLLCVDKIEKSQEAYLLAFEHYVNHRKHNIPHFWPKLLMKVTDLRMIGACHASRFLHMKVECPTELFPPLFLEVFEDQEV
T3 sequence (P19793 227-458 partner limits assumed): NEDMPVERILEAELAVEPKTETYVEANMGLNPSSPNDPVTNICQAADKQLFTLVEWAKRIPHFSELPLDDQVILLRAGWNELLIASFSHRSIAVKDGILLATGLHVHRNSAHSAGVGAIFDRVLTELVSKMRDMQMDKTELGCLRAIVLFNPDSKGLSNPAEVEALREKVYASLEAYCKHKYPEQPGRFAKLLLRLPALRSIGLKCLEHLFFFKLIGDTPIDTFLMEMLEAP
Put plainly: In vitro TRα cell transfection experiment (GAL4 luciferase reporter, HEK293T). Format: cell-based. On the technique in general: In a reporter assay the amount or activity of a reporter protein is the signal.

The target of data set [4] is T4, TRβ (Homo sapiens, UniProt P10828).
T4 construct: host or cells: HEK293T
T4 sequence (P10828 217-461 limits assumed): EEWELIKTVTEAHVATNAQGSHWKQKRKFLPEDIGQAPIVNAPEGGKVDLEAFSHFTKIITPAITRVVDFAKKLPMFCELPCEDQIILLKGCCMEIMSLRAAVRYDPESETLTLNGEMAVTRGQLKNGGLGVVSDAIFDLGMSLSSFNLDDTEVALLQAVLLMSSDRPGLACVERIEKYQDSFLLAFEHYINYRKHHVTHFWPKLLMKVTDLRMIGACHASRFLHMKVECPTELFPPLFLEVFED
T4 sequence (P19793 227-458 partner limits assumed): T3 sequence (P19793 227-458 partner limits assumed)
Kind of data set: In vitro TRβ cell transfection experiment (GAL4 luciferase reporter, HEK293T). Format: cell-based.

Data set [5] in a line: PK experiment of cynomolgus monkeys. The class given is in vivo. Particulars: cynomolgus monkey, plasma; for AUC(0-t): read-out: Area under the curve AUC(0-t) in the case of administration; for Cmax: read-out: Peak concentration Cmax. The source says:
The purpose of this experiment was to evaluate the pharmacokinetic behavior of the compound to be tested after single intravenous and intragastric administration, and to study the bioavailability after intragastric administration, providing animal experimental data for clinical studies.
Preparation of solutions for intravenous injection and intragastric administration: an appropriate amount of compound to be tested was accurately weighed, and mixed with a suitable solvent (5 vol % DMSO+10 vol % polyethylene glycol−15-hydroxystearate+85 vol % normal saline). After vortex, or ultrasound processing, a clear and transparent solution (the solution for intravenous injection administration), or a uniform suspension was obtained. The solution administrated by intravenous injection needed to be filtered through a 0.22 μm filter membrane
Experimental design: before the first dose the cynomolgus monkeys were divided into 2 groups by body weight with 3 male cynomolgus monkeys in each group, where animals in group 1 were given the compound to be tested (1 mg/kg) by single intravenous injection (IV); and animals in the 2rd group were administrated with the compound to be tested (5 mg/kg) by single intragastric administration (PO). The animals were weighed before administration, and dosages were calculated based on the weights of the animals.
Sample collection: a whole blood sample (about 0.2 mL) was collected at a specified time by venipuncture of an upper limb (or other suitable blood collection sites), and the actual blood collection time was recorded in test records. The acceptable error for one acquisition time point within 1 hour after administration is ±1 minute, and the acceptable error for other time points is ±5% of the theoretical time. All blood samples were immediately transferred to a labeled commercial centrifuge tube containing K2-EDTA. After blood sample collection, the blood sample was centrifuged at 4° C. and 3,200 g for 10 minutes, the supernatant plasma was sucked, quickly put in dry ice, and kept in a refrigerator at −70±10° C. for LC-MS/MS analysis. The collection time of both groups was 0.083 hour, 0.25 hour, 0.5 hour, 1 hour, 2 hours, 4 hours, 8 hours and 24 hours after administration.
Data processing: Area under the curve (AUC(0-t) and AUC(0-∞)), elimination half-life (T½), peak concentration (Cmax), time to reach maximum plasma concentration (Tmax), etc., were calculated by the non-compartment analysis module in Phoenix WinNonlin 7.0.

T2 sequence (P19793 whole entry partner, other chains not shown, the tested form may be a part): as the sequence (P19793 whole entry partner, other chains not shown, the tested form may be a part) above

What is called EC50 is the concentration at which the effect is half-maximal. A lower EC50 goes with higher potency in that assay. For `CC(C)c1nc(Oc2c(Cl)cc(NC(=O)C(=O)O)cc2Cl)ncc1O` [KHE021], the EC50 in data set [1] stood at 0.008 µM; in data set [2], 0.001 µM; in data set [3], 1.17 µM; in data set [4], 0.5 µM.

For `N#Cc1nn(-c2cc(Cl)c(Oc3ncc(O)c(Cc4ccccc4)n3)c(Cl)c2)c(=O)[nH]c1=O` [KH09], the EC50 in data set [1] amounted to 1.88 µM; in data set [2], 0.066 µM.

In the case of `N#Cc1nn(-c2cc(Cl)c(Oc3ncc(O)c(C4CC(F)(F)C4)n3)c(Cl)c2)c(=O)[nH]c1=O` [KHE019], the EC50 in data set [1] was found to be 2.38 µM; in data set [2] it was 0.254 µM.

Regarding `O=c1cnn(-c2cc(Cl)c(Oc3ncc(O)c(C4CC4)n3)c(Cl)c2)c(=O)[nH]1` [KHE018], the EC50 in data set [1] was found to be 0.346 µM; in data set [2], 0.04 µM; in data set [3], 0.407 µM; in data set [4], 0.102 µM.

With `CC(C)c1nc(Oc2c(Cl)cc(NCC(=O)O)cc2Cl)ncc1O` [KH04], the EC50 in data set [1] was found to be 0.133 µM; in data set [2], 0.113 µM; in data set [3] it was 2.49 µM; in data set [4], 1.28 µM.

As for `[2H]C([2H])([2H])C(c1nc(Oc2c(Cl)cc(-n3ncc(=O)[nH]c3=O)cc2Cl)ncc1O)C([2H])([2H])[2H]` [KH16], the EC50 in data set [1] turned out to be 0.106 µM; in data set [2], 0.012 µM; in data set [3], 0.138 µM; in data set [4], 0.019 µM.

`CC(C)c1nc(Sc2c(Cl)cc(-n3ncc(=O)[nH]c3=O)cc2Cl)ncc1O` [KH18]: the EC50 in data set [1] worked out at 0.188 µM; in data set [2] it was 0.011 µM; in data set [3] it was 0.028 µM; in data set [4], 0.007 µM.

What is called bioavailability is the share of a dose that reaches the circulation, judged against a reference dose that is usually intravenous. As for `CC(C)c1cc(Oc2c(Cl)cc(-n3nc(C#N)c(=O)[nH]c3=O)cc2Cl)n[nH]c1=O` [MGL3196, reference compound], the half-life in data set [5] (IV, 1 mg/kg, single dose, male cynomolgus monkeys, read-out: Half-life period (T1/2) (converted)) is 1.45 h. The bioavailability in data set [5] (male, PO 5 mg/kg vs IV 1 mg/kg, read-out: Bioavailability (F)) was 8.47%. Moreover, in data set [5] (male, IV, 1 mg/kg, single dose), the AUC(0-t) was 3900 ng·h/mL and the Cmax stood at 11200 ng/mL. Besides, in data set [5] (male, PO, 5 mg/kg, single dose), the AUC(0-t) is 1650 ng·h/mL and the Cmax turned out to be 430 ng/mL.

For the molecule `O=c1cnn(-c2cc(Cl)c(Oc3ncc(O)c(Cc4ccc(F)cc4)n3)c(Cl)c2)c(=O)[nH]1` [KHE002], the EC50 in data set [1] was determined as 0.272 µM; in data set [2], 0.003 µM; in data set [3] it was 0.039 µM; in data set [4], 0.004 µM.

In the case of `N#Cc1nn(-c2cc(Cl)c(Oc3ncc(O)c(Cc4ccc(F)cc4)n3)c(Cl)c2)c(=O)[nH]c1=O` [KHE001], the EC50 in data set [1] came to 0.418 µM; in data set [2] it was 0.007 µM; in data set [3], 0.563 µM; in data set [4], 0.258 µM.

For the molecule `CC(C)c1nc(Oc2c(Cl)cc(-n3nc(C#N)c(=O)[nH]c3=O)c3c2CCO3)ncc1O` [KH07], the EC50 is 0.31 µM in data set [1], 0.048 µM in data set [2], 0.964 µM in data set [3] and 0.208 µM in data set [4].

As to `CC(C)c1nc(Sc2c(Cl)cc(-n3nc(C#N)c(=O)[nH]c3=O)cc2Cl)ncc1O` [KH17], the EC50 in data set [1] was found to be 0.385 µM; in data set [2], 0.021 µM.

Consider `[2H]C([2H])([2H])C(c1nc(Oc2c(Cl)cc(-n3nc(C#N)c(=O)[nH]c3=O)cc2Cl)ncc1O)C([2H])([2H])[2H]` [KH15], for which the EC50 turned out to be 0.194 µM in data set [1], 0.014 µM in data set [2], 1.46 µM in data set [3] and 0.205 µM in data set [4].

Regarding `CC(C)c1nc(Oc2c(Cl)cc(-c3noc(=O)[nH]3)cc2Cl)ncc1O` [KHE003], the values for the 50% effective concentration (EC50) in data set [1] and in data set [2] were 0.573 µM and 0.746 µM, respectively.

In the case of `N#Cc1nn(-c2cc(Cl)c(Oc3ncc(O)c(C4CC4)n3)c(Cl)c2)c(=O)[nH]c1=O` [KHE017], the EC50 in data set [1] stood at 0.737 µM; in data set [2] it was 0.077 µM; in data set [3], 3.31 µM; in data set [4], 0.88 µM.

`CC(C)c1nc(Oc2c(Cl)cc(NCP(=O)(O)O)cc2Cl)ncc1O` [KH02] had an EC50 in data set [2] of 1.06 µM.

In the case of `CCC(CC)c1nc(Oc2c(Cl)cc(-n3nc(C#N)c(=O)[nH]c3=O)cc2Cl)ncc1O` [KHE009], the EC50 was 0.258 µM in data set [1], 0.04 µM in data set [2], 0.507 µM in data set [3] and 0.074 µM in data set [4].

Take `CCC(CC)c1nc(Oc2c(Cl)cc(-n3ncc(=O)[nH]c3=O)cc2Cl)ncc1O` [KHE010]: the EC50 in data set [1] was 0.22 µM; in data set [2], 0.029 µM.

For `O=c1cnn(-c2cc(Cl)c(Oc3ncc(O)c(CC4CCCCC4)n3)c(Cl)c2)c(=O)[nH]1` [KHE008], the EC50 in data set [1] amounted to 4.54 µM; in data set [2], 0.067 µM; in data set [3], 0.049 µM; in data set [4] it was 0.008 µM.

On to `N#Cc1nn(-c2cc(Cl)c(Oc3ncc(O)c(CC4CCCCC4)n3)c(Cl)c2)c(=O)[nH]c1=O` [KHE007], for which the EC50 was determined as 5.12 µM in data set [1], 0.089 µM in data set [2], 0.528 µM in data set [3] and 0.227 µM in data set [4].

For `CC(C)c1nc(Oc2c(Cl)cc(-n3ncc(=O)[nH]c3=O)c3c2CCC3)ncc1O` [KH14], the EC50 in data set [1] stood at 0.102 µM; in data set [2], 0.105 µM; in data set [3], 0.383 µM; in data set [4], 0.148 µM.

Consider `CC(C)c1nc(Oc2c(Cl)cc(-n3nc(C#N)c(=O)[nH]c3=O)c3c2CCC3)ncc1O` [KH13], for which the EC50 in data set [1] stood at 0.132 µM; in data set [2] it was 0.054 µM; in data set [3] it was 2.74 µM; in data set [4] it was 1.13 µM.
